Earlier results, collected in patent US20090304869A1, “Peptides Having an Ace Inhibiting Effect” (priority 2005, published 2009).

What was measured:
ACE = ACE (Homo sapiens, UniProt P12821); conditions: peptides in fermented milk products
[1] = in sour milk, hypertensive humans

ACE, sequence (P12821 30-1306, species assumed): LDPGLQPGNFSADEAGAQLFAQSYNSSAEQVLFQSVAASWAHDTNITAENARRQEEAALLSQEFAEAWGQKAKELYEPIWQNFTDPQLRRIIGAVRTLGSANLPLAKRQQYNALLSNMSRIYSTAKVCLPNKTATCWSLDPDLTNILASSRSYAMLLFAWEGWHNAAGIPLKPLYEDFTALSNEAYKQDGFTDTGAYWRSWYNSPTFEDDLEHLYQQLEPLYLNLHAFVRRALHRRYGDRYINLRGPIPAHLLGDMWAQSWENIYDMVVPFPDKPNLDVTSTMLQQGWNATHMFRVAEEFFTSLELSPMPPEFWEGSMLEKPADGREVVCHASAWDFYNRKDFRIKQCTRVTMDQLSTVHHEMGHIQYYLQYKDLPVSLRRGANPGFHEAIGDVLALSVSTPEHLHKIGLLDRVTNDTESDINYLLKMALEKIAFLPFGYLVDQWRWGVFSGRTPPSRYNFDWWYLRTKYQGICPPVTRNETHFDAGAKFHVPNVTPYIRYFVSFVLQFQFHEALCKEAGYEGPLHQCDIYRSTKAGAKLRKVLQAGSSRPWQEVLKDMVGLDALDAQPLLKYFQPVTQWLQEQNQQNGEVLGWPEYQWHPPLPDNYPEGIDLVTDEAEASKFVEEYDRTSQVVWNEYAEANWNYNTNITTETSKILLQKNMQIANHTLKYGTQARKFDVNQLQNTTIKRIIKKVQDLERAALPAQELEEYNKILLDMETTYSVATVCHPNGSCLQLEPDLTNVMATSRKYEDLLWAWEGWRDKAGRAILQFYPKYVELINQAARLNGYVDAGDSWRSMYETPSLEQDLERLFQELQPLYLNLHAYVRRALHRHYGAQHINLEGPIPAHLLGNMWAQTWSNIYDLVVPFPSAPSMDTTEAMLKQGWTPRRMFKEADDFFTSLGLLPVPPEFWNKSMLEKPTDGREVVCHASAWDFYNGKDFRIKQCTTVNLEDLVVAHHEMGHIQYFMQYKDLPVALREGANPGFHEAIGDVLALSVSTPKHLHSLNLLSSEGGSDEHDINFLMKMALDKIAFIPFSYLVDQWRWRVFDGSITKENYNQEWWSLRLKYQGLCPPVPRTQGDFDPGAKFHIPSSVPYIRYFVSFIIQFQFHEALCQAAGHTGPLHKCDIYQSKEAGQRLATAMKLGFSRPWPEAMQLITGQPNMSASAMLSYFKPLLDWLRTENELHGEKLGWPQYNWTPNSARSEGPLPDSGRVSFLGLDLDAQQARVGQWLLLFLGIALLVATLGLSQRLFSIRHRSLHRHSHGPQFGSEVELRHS

SMILES: CC[C@H](C)[C@H](N)C(=O)N1CCC[C@H]1C(=O)N1CCC[C@H]1C(=O)O [IPP]
- in vitro ACE inhibition (ACE): showed in vitro ACE inhibition
- blood pressure lowering effect [1]: blood pressure lowering effect
